One series has as its system MDA-MB-453 cells. The experiment in a line: Reversibility of antiproliferative effect, SRB assay. It is filed as cell-based, human. On the procedure:
In vitro growth inhibition assay: To study the effect of the compounds on growth factor stimulated-proliferation, cells were grown to 70% of confluence in 48-well plates. […] Cell growth was measured using the sulforhodamine B (SRB) assay (24). Briefly, following drug treatment, cells were fixed using 50 μl of cold trichloroacetic acid (50%) for 60 min at 4° C., washed five times with tap water, and stained for 30 min at room temperature with SRB (0.4%) and dissolved in acetic acid (0.5%). The plates were rinsed five times with 1% acetic acid and allowed to air dry. The resulting colored residue was dissolved in 200 μl of Tris base (10 mM), and the optical density read for each well at 450 nm using a Bio-Rad microplate reader (model 2550). […] Cell growth was measured using SRB assay as described previously.
For orientation: The SRB assay estimates cell density from bound dye.

The subject of series [1] is human breast carcinoma MDA-MB-468. Description: In vivo efficacy, MDA-MB-468 implanted s.c. More on the design: species or system SCID mice. On the procedure: In vivo studies: SCID mice were maintained as per McGill animal safety protocols. In a preliminary model, SCID mice housed in filtered cages were implanted subcutaneously (s.c.) with the human breast carcinoma MDA-MB-468 and treatment began when the tumors were palpable (8 mice/group). […] The tumor burdens were measured with a caliper and mice were weighed twice weekly. The study was later repeated with the MDA-MB-468 cells implanted in the mammary fat pad, a model that better mimics human breast carcinoma.

Entries after “also recorded” stand apart in the source; their conditions may differ. Where two headings read alike, the source gives them in different places.

Consider one compound from US7879861B2, “Combi-molecules having EGFR and DNA targeting properties” (priority 2005, dated 2011).

What is called IC50 is the point on the concentration scale where inhibition reaches its midpoint. Consider `ClCCNc1ccc2ncnc(Nc3cccc(Br)c3)c2c1` [ZR2002], for which the IC50 stood at 430 nM with MDA-MB-453 cells (Homo sapiens, MDA-MB-453, 120 h, read-out: IC50, growth inhibition, 120 h continuous exposure, MDA-MB-453, SRB); 4170 nM in the series on MDA-MB-453 cells (Homo sapiens, MDA-MB-453, read-out: IC50, growth inhibition, 2 h exposure followed by 120 h recovery, MDA-MB-453, SRB); 4170 nM in the series on MDA-MB-453 cells (read-out: IC50, growth inhibition, 2 h exposure followed by 120 h recovery, MDA-MB-453, SRB); 426 nM in the series with MDA-MB-453 cells (read-out: IC50, growth inhibition, 120 h continuous exposure, MDA-MB-453, SRB). Further, the “in vivo antitumor activity” value in series [1] (50 mg/kg i.p. every 3-4 days, one month, s.c. tumors, p<0.001 vs vehicle) is “modest; also recorded: moderate antiproliferative activity”. Besides, the tolerated dose in series [1] (SCID mice, i.p.) was determined as 50 mg/kg.
